Assay: Forced degradation studies by TOF-MS
Format: physicochemical
Conditions: 0.5 mg/ml in potassium citrate, pH 8.1, 37° C.
Method: 0.5 mg/ml of PHAD was prepared in potassium citrate, pH 8.1 and stored at 37° C. pH 8.1 is outside the preferred ranges of the invention and induces degradation. Samples were prepared for analysis by the addition of 200 μL of CHCl3, 200 μL of methanol, and 100 μL of ammonium acetate in 80:20 methanol/water. After mixing the bottom layer was transferred and diluted with 100 μL of methanol. Samples were analyzed by electrospray time-of-flight (TOF) mass spectrometry (MS) in negative mode via direct infusion. […] In addition, those skilled in the art understand that various adduct ions may occur during each analysis from day to day. Therefore, molecular formulas are based upon the ions observed considering error of the system day to day. […] By Days 1, 7, 13, and 20 significant ions appear at 1309 and 1519 and continue to increase from Day 1 to Day 20. The MS ion at 1309 represents a loss of two acyl groups (molecular formula is C28H53O3; 437 Daltons) and the MS ion at 1519 represents a loss of a single acyl group (molecular formula is C14H27O2; 227 Daltons) from the diglucosamine scaffold. By Day 7, the mass intensity of the 1519 ion had increased to 46% of the mass intensity of the 1745 mass ion. On Day 0 the mass intensity of the 1519 ion was 4% of that of the 1745 mass ion.
0.5 mg/ml of 3-deacyl-phosphorylated hexaacyl disaccharide was prepared in potassium citrate, pH 8.1 and stored at 37° C. All preparation and analysis were conducted as listed in experiment 1. […] By Days 1, 13, and 22 a significant ion appeared at 1084 and continued to increase from Day 1 to Day 22. The MS ion at 1084 represents a loss of two acyl groups (molecular formula is C28H53O3; 437 Daltons) from the diglucosamine scaffold. By Day 13 the intensity of the 1084 mass ion had increased to 24% of the intensity of the 1521 mass ion. On Day 0 the intensity of the 1084 mass ion was 3% of the intensity of the 1521 mass ion. […] Phosphorylated hexaacyl disaccharide and 3-deacyl phosphorylated hexaacyl disaccharide primarily degrade by losing acyl groups. The formulations of the invention prevent the loss of these acyl groups.
Because it was both pure and abundant, the pentaacyl MLA component was chosen for examination of its degradation mechanism. […] The degradation experiment was conducted in PBS, pH 7.4 and stored at 37° C. This saline buffer system was selected because the use of saline is outside the preferred embodiments of the invention.

3-deacyl-phosphorylated hexaacyl disaccharide
intensity of the 1084 mass ion relative to the 1521 mass ion (Day 0): 3%
intensity of the 1084 mass ion relative to the 1521 mass ion (Day 13): 24%

phosphorylated hexaacyl disaccharide [PHAD]
mass intensity of the 1519 ion relative to the 1745 mass ion (Day 0): 4%
mass intensity of the 1519 ion relative to the 1745 mass ion (Day 7): 46%

Source: patent US10058608B2, “Compositions of vaccines and adjuvants and methods for the treatment of urinary tract infections” (priority 2013, dated 2018)
